Values after ≈ are worked out from the molar mass of the structure shown. Where a SMILES comes first, the peptide text is derived from it. Bridges are numbered along the chain shown (N, C = ends). Roman numbers before positions name the chains, in order. [ ]: non-standard residue; d: D form. The star is where a group is joined. Thr(ol) = C[C@@H](O)[C@H](N)CO; Tle = CC(C)(C)[C@H](N)C(=O)O; Hiv = CC(C)[C@H](O)C(=O)O; Isovaleryl = CC(C)CC(=O)*; dDab = NCC[C@@H](N)C(=O)O; hCys = N[C@@H](CCS)C(=O)O; hSer = N[C@@H](CCO)C(=O)O; Nle = CCCC[C@H](N)C(=O)O; Dab = NCC[C@H](N)C(=O)O; Dap = NC[C@H](N)C(=O)O
How the values were obtained:
Type in all cases: cell-based
[1] = system: human red blood cells (hRBC); experiment: Hemolysis; details: red cells of human, 1 h, 200
Method in brief: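 Percent hemolysis relative to 2% Triton X-100 (100%) and PBS/10% water (0%), from blank-corrected OD540 of diluted supernatants. Peptides tested at 200 μg/mL against 20% (v/v) washed human erythrocytes, 1 h, 37° C, shaking at 300 rpm.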

[2] = system: Acinetobacter baumannii DSM 30008; details: DSM 30008
Method in brief: (§1)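 Peptides are tested in serial two-fold dilutions against about 10^6 CFU/mL in MH-II broth containing 0.002% P-80 (v/v, final). Plates incubate 18-20 h at 35° C, and the MIC is the lowest peptide level (μg/mL) showing no visible growth.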

[3] = system: Acinetobacter baumannii 872842; details: 872842
Method in brief: as §1

[4] = system: Escherichia coli ATCC 25922; details: ATCC 25922
Method in brief: as §1

[5] = system: Klebsiella pneumoniae SSI #3010; details: SSI #3010
Method in brief: as §1

Escherichia coli 926415 = details: 926415
Method in brief: as §1

[6] = system: Klebsiella pneumoniae 968733; details: 968733
Method in brief: as §1

[7] = system: Enterobacter cloacae 848840; details: 848840
Method in brief: as §1

[8] = system: Pseudomonas aeruginosa ATCC 27853; details: ATCC 27853
Method in brief: as §1

MIC [2] | MIC [3] | MIC [4] | MIC [5] | MIC (Escherichia coli 926415) | MIC [6] | MIC [7] | MIC [8] | Acinetobacter baumannii DSM 30008 MIC [2] | Escherichia coli ATCC 25922 MIC [4] | Klebsiella pneumoniae SSI #3010 MIC [5] | Pseudomonas aeruginosa ATCC 27853 MIC [8] | SMILES | Hemolysis at 200 μg/mL [1]
– | 0.125 µg/mL (≈ 0.0517 µM) | – | – | 0.125 µg/mL (≈ 0.0517 µM) | 0.5 µg/mL (≈ 0.207 µM) | 0.0625 µg/mL (≈ 0.0258 µM) | – | 0.0625 µg/mL | 0.0625 µg/mL | 0.0625 µg/mL | 0.0625 µg/mL | CCCC[C@@H]1NC(=O)[C@H](CO)NC(=O)[C@H](Cc2c[nH]c3ccccc23)NC(=O)[C@H](CO)NC(=O)[C@@H](CCN)NC(=O)[C@H](CCC(=O)N[C@@H](CCN)C(=O)N[C@H](C(=O)N[C@@H](CN)C(=O)N[C@H]2CCNC(=O)[C@H]([C@@H](C)O)NC(=O)[C@H](CCN)NC(=O)[C@H](CCN)NC(=O)[C@H](CC(C)C)NC(=O)[C@@H](CC(C)C)NC(=O)[C@H](CCN)NC2=O)[C@@H](C)O)NC(=O)[C@H](CCN)NC(=O)[C@H](Cc2ccc(O)cc2)NC(=O)[C@@H](NC(=O)[C@@H](NC(C)=O)C(C)C)CCNC(=O)CC[C@@H](C(=O)N[C@@H](CO)C(N)=O)NC1=O [Ex. 326] (I: Ac-V[Dab]Y[Dab]E[dDab]SWS[Nle]ES-NH2 / II: [Dab]T[Dap][Dab][Dab][dL]L[Dab][Dab]T; lactam I:2-I:11, II:4-II:C; amide I:5-II:N) | <1%
0.125 µg/mL (≈ 0.0524 µM) | 0.125 µg/mL (≈ 0.0524 µM) | 0.125 µg/mL (≈ 0.0524 µM) | 0.5 µg/mL (≈ 0.21 µM) | 0.125 µg/mL (≈ 0.0524 µM) | 0.25 µg/mL (≈ 0.105 µM) | 0.5 µg/mL (≈ 0.21 µM) | 0.25 µg/mL (≈ 0.105 µM) | – | – | – | – | CC(C)CC(=O)N[C@H]1CSSC[C@@H](C(=O)N[C@H](CO)[C@@H](C)O)NC(=O)[C@H](C(C)(C)C)NC(=O)[C@H](CO)NC(=O)[C@H](Cc2c[nH]c3ccccc23)NC(=O)[C@H](CCO)NC(=O)[C@@H](CCN)NC(=O)[C@H](CCC(=O)N[C@@H](CCN)C(=O)N[C@H](C(=O)N[C@@H](CCN)C(=O)N[C@H]2CCNC(=O)[C@H]([C@@H](C)O)NC(=O)[C@H](CCN)NC(=O)[C@H](CCN)NC(=O)[C@H](CC(C)C)NC(=O)[C@@H](CC(C)C)NC(=O)[C@H](CCN)NC2=O)[C@@H](C)O)NC(=O)[C@H](CCN)NC(=O)[C@H](Cc2ccc(O)cc2)NC1=O [Example 2] (I: Isovaleryl-CY[Dab]E[dDab][hSer]WS[Tle]C[Thr(ol)] / II: [Dab]T[Dab][Dab][Dab][dL]L[Dab][Dab]T; disulfide I:1-I:10; amide I:4-II:N; lactam II:4-II:C) | <1%
0.0625 µg/mL (≈ 0.0259 µM) | 0.0625 µg/mL (≈ 0.0259 µM) | 0.03125 µg/mL (≈ 0.0129 µM) | 0.03125 µg/mL (≈ 0.0129 µM) | 0.25 µg/mL (≈ 0.104 µM) | 0.25 µg/mL (≈ 0.104 µM) | 0.0625 µg/mL (≈ 0.0259 µM) | 0.125 µg/mL (≈ 0.0518 µM) | – | – | – | – | CC(=O)N[C@H](C(=O)N[C@H]1CSSC[C@@H](C(=O)N[C@@H](CO)C(N)=O)NC(=O)[C@H](C(C)(C)C)NC(=O)[C@H](CO)NC(=O)[C@H](Cc2c[nH]c3ccccc23)NC(=O)[C@H](CCN)NC(=O)[C@@H](CCN)NC(=O)[C@H](CCC(=O)N[C@@H](CCN)C(=O)N[C@H](C(=O)N[C@@H](CN)C(=O)N[C@H]2CCNC(=O)[C@H]([C@@H](C)O)NC(=O)[C@H](CCN)NC(=O)[C@H](CCN)NC(=O)[C@H]([C@@H](C)O)NC(=O)[C@@H](CC(C)C)NC(=O)[C@H](CCN)NC2=O)[C@@H](C)O)NC(=O)[C@H]([C@@H](C)O)NC(=O)[C@H](Cc2ccc(O)cc2)NC1=O)C(C)C [Ex. 262] (I: Ac-VCYTE[dDab][Dab]WS[Tle]CS-NH2 / II: [Dab]T[Dap][Dab][Dab][dL]T[Dab][Dab]T; disulfide I:2-I:11; amide I:5-II:N; lactam II:4-II:C) | 1%

The next lines start with the compound.

SMILES | MIC [2] | MIC [3] | MIC [4] | MIC [5] | MIC (Escherichia coli 926415) | MIC [6] | MIC [7] | MIC [8] | Acinetobacter baumannii DSM 30008 MIC [2] | Escherichia coli ATCC 25922 MIC [4] | Klebsiella pneumoniae SSI #3010 MIC [5] | Pseudomonas aeruginosa ATCC 27853 MIC [8] | Hemolysis at 200 μg/mL [1]
CC(C)C[C@@H]1NC(=O)[C@@H](CC(C)C)NC(=O)[C@H](CCN)NC(=O)[C@@H](NC(=O)[C@H](CCN)NC(=O)[C@@H](NC(=O)[C@H](CCN)NC(=O)CC[C@@H]2NC(=O)[C@H](CCN)NC(=O)[C@H](Cc3ccc(O)cc3)NC(=O)[C@@H](NC(=O)[C@@H](NC(=O)[C@H](N)CO)C(C)C)CSSC[C@@H](C(=O)N[C@@H](CO)C(=O)N[C@H](C)C(=O)O)NC(=O)[C@H](C(C)(C)C)NC(=O)[C@H](CO)NC(=O)[C@H](Cc3c[nH]c4ccccc34)NC(=O)[C@H]([C@@H](C)O)NC(=O)[C@@H](CCN)NC2=O)[C@@H](C)O)CCNC(=O)[C@H]([C@@H](C)O)NC(=O)[C@H](CCN)NC(=O)[C@H](CCN)NC1=O [Ex. 241] (I: H-[dS]VCY[Dab]E[dDab]TWS[Tle]CS[dA]-OH / II: [Dab]T[Dab][Dab][Dab][dL]L[Dab][Dab]T; disulfide I:3-I:12; amide I:6-II:N; lactam II:4-II:C) | 0.125 µg/mL (≈ 0.0489 µM) | 0.125 µg/mL (≈ 0.0489 µM) | 0.125 µg/mL (≈ 0.0489 µM) | 0.125 µg/mL (≈ 0.0489 µM) | 1 µg/mL (≈ 0.391 µM) | 1 µg/mL (≈ 0.391 µM) | 2 µg/mL (≈ 0.782 µM) | 0.25 µg/mL (≈ 0.0977 µM) | – | – | – | – | <1%
CC(C)C[C@@H]1NC(=O)[C@@H](CC(C)C)NC(=O)[C@H](CCN)NC(=O)[C@@H](NC(=O)[C@H](CCN)NC(=O)[C@@H](NC(=O)[C@H](CCN)NC(=O)CC[C@@H]2NC(=O)[C@H](CCN)NC(=O)[C@H](Cc3ccc(O)cc3)NC(=O)[C@@H](NC(=O)[C@@H](O)C(C)C)CSSC[C@@H](C(=O)N[C@H](CO)[C@@H](C)O)NC(=O)[C@H](C(C)(C)C)NC(=O)[C@H](CCO)NC(=O)[C@H](Cc3c[nH]c4ccccc34)NC(=O)[C@H](CO)NC(=O)[C@@H](CCN)NC2=O)[C@@H](C)O)CCNC(=O)[C@H]([C@@H](C)O)NC(=O)[C@H](CCN)NC(=O)[C@H](CCN)NC1=O [Ex. 83] (I: H-[Hiv]CY[Dab]E[dDab]SW[hSer][Tle]C[Thr(ol)] / II: [Dab]T[Dab][Dab][Dab][dL]L[Dab][Dab]T; disulfide I:2-I:11; amide I:5-II:N; lactam II:4-II:C) | 0.0625 µg/mL (≈ 0.026 µM) | 0.125 µg/mL (≈ 0.0521 µM) | 0.0625 µg/mL (≈ 0.026 µM) | 0.0625 µg/mL (≈ 0.026 µM) | 0.25 µg/mL (≈ 0.104 µM) | 0.25 µg/mL (≈ 0.104 µM) | 0.125 µg/mL (≈ 0.0521 µM) | 0.125 µg/mL (≈ 0.0521 µM) | – | – | – | – | <1%
CC(=O)N[C@H](C(=O)N[C@H]1CCSSC[C@@H](C(=O)N[C@@H](CO)C(N)=O)NC(=O)[C@H](C(C)(C)C)NC(=O)[C@H](CO)NC(=O)[C@H](Cc2c[nH]c3ccccc23)NC(=O)[C@H](CO)NC(=O)[C@@H](CCN)NC(=O)[C@H](CCC(=O)N[C@@H](CCN)C(=O)N[C@H](C(=O)N[C@@H](CN)C(=O)N[C@H]2CCNC(=O)[C@H]([C@@H](C)O)NC(=O)[C@H](CCN)NC(=O)[C@H](CCN)NC(=O)[C@H](CC(C)C)NC(=O)[C@@H](CC(C)C)NC(=O)[C@H](CCN)NC2=O)[C@@H](C)O)NC(=O)[C@H](CN)NC(=O)[C@H](Cc2ccc(O)cc2)NC1=O)C(C)C [Ex. 121] (I: Ac-V[hCys]Y[Dap]E[dDab]SWS[Tle]CS-NH2 / II: [Dab]T[Dap][Dab][Dab][dL]L[Dab][Dab]T; disulfide I:2-I:11; amide I:5-II:N; lactam II:4-II:C) | 0.0625 µg/mL (≈ 0.0259 µM) | 0.0625 µg/mL (≈ 0.0259 µM) | 0.0625 µg/mL (≈ 0.0259 µM) | 0.125 µg/mL (≈ 0.0518 µM) | 0.125 µg/mL (≈ 0.0518 µM) | 0.25 µg/mL (≈ 0.104 µM) | 0.125 µg/mL (≈ 0.0518 µM) | 0.125 µg/mL (≈ 0.0518 µM) | – | – | – | – | <1%
CC(=O)N[C@H](C(=O)N[C@@H](CN)C(=O)N[C@@H](Cc1ccc(O)cc1)C(=O)N[C@H]1CSSC[C@@H](C(=O)N[C@H](C(=O)N[C@@H](C)C(=O)N[C@@H](CO)C(N)=O)C(C)(C)C)NC(=O)[C@H](Cc2c[nH]c3ccccc23)NC(=O)[C@H]([C@@H](C)O)NC(=O)[C@@H](CCN)NC(=O)[C@H](CCC(=O)N[C@@H](CCN)C(=O)N[C@H](C(=O)N[C@@H](CCN)C(=O)N[C@H]2CCNC(=O)[C@H]([C@@H](C)O)NC(=O)[C@H](CCN)NC(=O)[C@H](CCN)NC(=O)[C@H](CC(C)C)NC(=O)[C@@H](CC(C)C)NC(=O)[C@H](CCN)NC2=O)[C@@H](C)O)NC1=O)C(C)C [Ex. 179] (I: Ac-V[Dap]YCE[dDab]TWC[Tle]AS-NH2 / II: [Dab]T[Dab][Dab][Dab][dL]L[Dab][Dab]T; disulfide I:4-I:9; amide I:5-II:N; lactam II:4-II:C) | 0.0625 µg/mL (≈ 0.0259 µM) | 0.25 µg/mL (≈ 0.104 µM) | 0.125 µg/mL (≈ 0.0518 µM) | 0.25 µg/mL (≈ 0.104 µM) | 0.5 µg/mL (≈ 0.207 µM) | 4 µg/mL (≈ 1.66 µM) | 0.5 µg/mL (≈ 0.207 µM) | 0.25 µg/mL (≈ 0.104 µM) | – | – | – | – | <1%

Reference: patent US11629171B2, “Beta-hairpin peptidomimetics” (POLYPHOR AG, priority 2017, dated 2023)
